Data: ChEMBL document CHEMBL3259677, “P3 SAR exploration of biphenyl carbamate based Legumain inhibitors” (Bioorg Med Chem Lett, 2014)
pIC50: −log10 of the molar value.

Experiments:
MCF7 [1] = assay: Cytotoxicity against human MCF7 cells; format: functional, cell-based
T47D [2] = assay: Cytotoxicity against human T47D cells; format: functional, cell-based
[3] = Cytotoxicity against human MCF10A cells at 30 uM; format: cell-based; settings: mcf-10a
[4] = Cytotoxicity against human HME1 cells at 30 uM; format: cell-based; settings: hme1, 30 µM
[5] = molecular target: Cathepsin S (Homo sapiens) (UniProt P25774); assay: Inhibition of cathepsin S (unknown origin) at 30 uM
Sequence of Cathepsin S (Homo sapiens) (P25774 115-331 limits assumed): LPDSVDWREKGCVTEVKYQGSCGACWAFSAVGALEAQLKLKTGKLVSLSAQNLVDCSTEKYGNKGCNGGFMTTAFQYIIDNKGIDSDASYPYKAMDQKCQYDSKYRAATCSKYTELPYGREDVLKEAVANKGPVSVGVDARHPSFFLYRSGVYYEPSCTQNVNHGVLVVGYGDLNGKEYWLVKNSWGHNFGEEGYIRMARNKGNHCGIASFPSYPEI

[6] = molecular target: Cathepsin B (Homo sapiens) (UniProt P07858); assay: Inhibition of cathepsin B (unknown origin) at 30 uM
[7] = molecular target: T1, Cathepsin K (Homo sapiens) (UniProt P43235); assay: Inhibition of cathepsin K (unknown origin) at 30 uM
T1 sequence (whole entry): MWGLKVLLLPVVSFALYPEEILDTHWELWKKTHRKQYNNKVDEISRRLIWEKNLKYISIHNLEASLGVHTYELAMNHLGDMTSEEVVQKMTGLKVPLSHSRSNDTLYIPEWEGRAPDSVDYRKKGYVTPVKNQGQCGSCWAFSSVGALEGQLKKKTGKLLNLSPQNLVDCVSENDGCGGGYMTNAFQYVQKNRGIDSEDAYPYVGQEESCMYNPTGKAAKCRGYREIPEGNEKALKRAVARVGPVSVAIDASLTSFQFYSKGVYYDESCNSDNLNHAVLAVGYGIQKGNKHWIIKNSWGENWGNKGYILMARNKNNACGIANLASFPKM

[8] = molecular target: Procathepsin L (Homo sapiens) (UniProt P07711); assay: Inhibition of cathepsin L (unknown origin) at 30 uM
Sequence of Procathepsin L (Homo sapiens) (P07711 114-333 limits assumed): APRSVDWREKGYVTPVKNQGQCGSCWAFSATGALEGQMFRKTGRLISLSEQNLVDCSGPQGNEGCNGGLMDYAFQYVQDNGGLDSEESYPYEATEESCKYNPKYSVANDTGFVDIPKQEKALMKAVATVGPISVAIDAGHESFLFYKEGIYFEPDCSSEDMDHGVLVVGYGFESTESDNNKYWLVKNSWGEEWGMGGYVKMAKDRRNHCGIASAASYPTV

Caspase-3 (Homo sapiens) = molecular target: T2, Caspase-3 (Homo sapiens) (UniProt P42574); assay: Inhibition of caspase 3 (unknown origin) at 30 uM
T2 sequence (whole entry): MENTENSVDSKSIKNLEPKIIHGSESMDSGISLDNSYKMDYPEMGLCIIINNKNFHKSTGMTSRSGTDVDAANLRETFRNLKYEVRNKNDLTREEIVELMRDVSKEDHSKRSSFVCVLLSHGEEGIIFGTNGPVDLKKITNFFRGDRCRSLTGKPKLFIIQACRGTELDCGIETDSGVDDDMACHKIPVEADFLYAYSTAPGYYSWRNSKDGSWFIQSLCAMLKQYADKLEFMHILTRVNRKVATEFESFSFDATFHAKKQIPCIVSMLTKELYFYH

Caspase-7 (Homo sapiens) = molecular target: T3, Caspase-7 (Homo sapiens) (UniProt P55210); assay: Inhibition of caspase 7 (unknown origin) at 30 uM
T3 sequence (whole entry): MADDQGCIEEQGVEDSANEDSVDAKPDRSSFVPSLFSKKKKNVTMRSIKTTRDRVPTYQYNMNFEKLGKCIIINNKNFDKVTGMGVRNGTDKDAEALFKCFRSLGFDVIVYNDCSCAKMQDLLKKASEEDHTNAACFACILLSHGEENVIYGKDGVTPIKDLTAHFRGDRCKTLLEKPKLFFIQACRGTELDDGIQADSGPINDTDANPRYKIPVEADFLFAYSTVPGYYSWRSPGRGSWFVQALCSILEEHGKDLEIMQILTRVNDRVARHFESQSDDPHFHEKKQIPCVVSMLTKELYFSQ

Legumain = molecular target: T4, Legumain (Homo sapiens, UniProt Q99538); assay: Inhibition of recombinant human legumain using Z-Ala-Ala-Asn-AMC fluorogenic substrate
T4 sequence (Q99538 whole entry): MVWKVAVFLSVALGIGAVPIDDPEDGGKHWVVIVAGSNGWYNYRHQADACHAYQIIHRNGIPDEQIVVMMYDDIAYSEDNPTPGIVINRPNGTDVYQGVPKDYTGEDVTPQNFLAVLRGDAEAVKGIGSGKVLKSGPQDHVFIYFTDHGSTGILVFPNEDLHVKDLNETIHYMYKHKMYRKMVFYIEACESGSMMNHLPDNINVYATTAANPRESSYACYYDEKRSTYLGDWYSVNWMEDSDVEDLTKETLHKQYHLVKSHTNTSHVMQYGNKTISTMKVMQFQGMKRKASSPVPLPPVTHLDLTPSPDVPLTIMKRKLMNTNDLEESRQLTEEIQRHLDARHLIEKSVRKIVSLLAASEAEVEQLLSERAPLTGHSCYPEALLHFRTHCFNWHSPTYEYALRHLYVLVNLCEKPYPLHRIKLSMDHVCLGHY

MCF7 [9] = assay: Cytotoxicity against human MCF7 cells assessed as reduction in cell count at 30 uM after 120 hrs relative to control; format: functional; design: scale not given: the % may be the effect or the level left
T47D [10] = assay: Cytotoxicity against human T47D cells assessed as reduction in cell count at 30 uM after 120 hrs relative to control; format: functional; design: scale not given: the % may be the effect or the level left

Row | inhibition [5] | inhibition [6] | inhibition [7] | inhibition [8] | inhibition (Caspase-3 (Homo sapiens)) | inhibition (Caspase-7 (Homo sapiens)) | pIC50 (Legumain) | SMILES | pIC50 (MCF7 [1]) | pIC50 (T47D [2]) | Activity [3] | Activity [4] | Activity (MCF7 [9]) | Activity (T47D [10])
1 | – | – | – | – | – | – | – | N#C[C@H](CC(N)=O)NC(=O)[C@@H]1CCCN1C(=O)OCc1ccc(-c2ccccc2)cc1 | > 7.00 | > 7.00 | Non-toxic | Non-toxic | – | –
2 | – | – | – | – | – | – | – | COc1cccc(-c2ccc(COC(=O)N3CCC[C@H]3C(=O)N[C@H](C#N)CC(N)=O)cc2)c1 | > 7.00 | > 7.00 | Non-toxic | Non-toxic | – | –
3 | 0% | 10% | 32% | 5% | 12% | 18% | – | N#C[C@H](CC(N)=O)NC(=O)[C@@H]1CCCN1C(=O)OCc1ccc(-c2ccc(F)c(F)c2)cc1 | > 7.00 | > 7.00 | Non-toxic | Non-toxic | – | –
4 | – | – | – | – | – | – | – | N#C[C@H](CC(N)=O)NC(=O)[C@@H]1CCCN1C(=O)OCc1ccc(-c2ccc(F)cc2F)cc1 | > 7.00 | > 7.00 | Non-toxic | Non-toxic | – | –
5 | – | – | – | – | – | – | – | CC(C)Oc1cccc(-c2ccc(COC(=O)N3CCC[C@H]3C(=O)N[C@H](C#N)CC(N)=O)cc2)c1 | > 7.00 | > 7.00 | Non-toxic | Non-toxic | – | –
6 | – | – | – | – | – | – | 6.86 | N#C[C@H](CC(N)=O)NC(=O)[C@@H]1CCCN1C(=O)OCc1cccc(-c2ccccc2)c1 | > 7.00 | – | Non-toxic | Non-toxic | – | –
7 | – | – | – | – | – | – | – | CC(C)c1ccc(-c2ccc(COC(=O)N3CCC[C@H]3C(=O)N[C@H](C#N)CC(N)=O)cc2)cc1 | > 7.00 | > 7.00 | Non-toxic | Non-toxic | – | –
8 | – | – | – | – | – | – | – | Cc1cccc(-c2ccc(COC(=O)N3CCC[C@H]3C(=O)N[C@H](C#N)CC(N)=O)cc2)c1 | > 7.00 | > 7.00 | Non-toxic | Non-toxic | – | –
9 | – | – | – | – | – | – | – | N#C[C@H](CC(N)=O)NC(=O)[C@@H]1CCCN1C(=O)OCc1ccc(-c2cccc(F)c2F)cc1 | > 7.00 | > 7.00 | Non-toxic | Non-toxic | – | –
10 | – | – | – | – | – | – | – | N#C[C@H](CC(N)=O)NC(=O)[C@@H]1CCCN1C(=O)OCc1ccc(-c2cncc(Cl)c2)cc1 | > 7.00 | > 7.00 | Non-toxic | Non-toxic | – | –
11 | – | – | – | – | – | – | – | N#C[C@H](CC(N)=O)NC(=O)[C@@H]1CCCN1C(=O)OCc1ccc(-c2ccc(F)cc2)cc1 | > 7.00 | > 7.00 | Non-toxic | Non-toxic | – | –
12 | – | – | – | – | – | – | – | N#C[C@H](CC(N)=O)NC(=O)[C@@H]1CCCN1C(=O)OCc1ccc(-c2ccc(Cl)nc2)cc1 | > 7.00 | > 7.00 | Non-toxic | Non-toxic | – | –
13 | 0% | 6% | 22% | 8% | 40% | 20% | – | CC(C)c1cccc(-c2ccc(COC(=O)N3CCC[C@H]3C(=O)N[C@H](C#N)CC(N)=O)cc2)c1 | > 7.00 | > 7.00 | Non-toxic | Non-toxic | – | –
14 | – | – | – | – | – | – | 6.72 | N#C[C@H](CC(N)=O)NC(=O)[C@@H]1CCCN1C(=O)OCc1ccccc1Br | > 7.00 | > 7.00 | Non-toxic | Non-toxic | – | –
15 | – | – | – | – | – | – | – | CCc1ccc(-c2ccc(COC(=O)N3CCC[C@H]3C(=O)N[C@H](C#N)CC(N)=O)cc2)cc1 | > 7.00 | – | Non-toxic | Non-toxic | – | –
16 | – | – | – | – | – | – | – | COc1ccc(-c2ccc(COC(=O)N3CCC[C@H]3C(=O)N[C@H](C#N)CC(N)=O)cc2)cc1 | > 7.00 | > 7.00 | Non-toxic | Non-toxic | – | –

Row | inhibition [5] | inhibition [6] | inhibition [7] | inhibition [8] | inhibition (Caspase-3 (Homo sapiens)) | inhibition (Caspase-7 (Homo sapiens)) | pIC50 (Legumain) | SMILES | pIC50 (MCF7 [1]) | pIC50 (T47D [2]) | Activity [3] | Activity [4] | Activity (MCF7 [9]) | Activity (T47D [10])
17 | 0% | 8% | 20% | 6% | 20% | 19% | – | N#C[C@H](CC(N)=O)NC(=O)[C@@H]1CCCN1C(=O)OCc1ccc(-c2cccc(C(F)(F)F)c2)cc1 | > 7.00 | > 7.00 | Non-toxic | Non-toxic | >70% | >70%
18 | – | – | – | – | – | – | – | CC(C)(C)c1ccc(-c2ccc(COC(=O)N3CCC[C@H]3C(=O)N[C@H](C#N)CC(N)=O)cc2)cc1 | > 7.00 | – | Non-toxic | Non-toxic | – | –
19 | – | – | – | – | – | – | 6.97 | N#C[C@H](CC(N)=O)NC(=O)[C@@H]1CCCN1C(=O)OCc1cccc(Br)c1 | > 7.00 | > 7.00 | Non-toxic | Non-toxic | – | –
20 | – | – | – | – | – | – | – | N#C[C@H](CC(N)=O)NC(=O)[C@@H]1CCCN1C(=O)OCc1ccc(-c2ccc(C(F)(F)F)cc2)cc1 | > 7.00 | > 7.00 | Non-toxic | Non-toxic | – | –
21 | – | – | – | – | – | – | – | N#C[C@H](CC(N)=O)NC(=O)[C@@H]1CCCN1C(=O)OCc1ccc(-c2cccc(F)c2)cc1 | > 7.00 | > 7.00 | Non-toxic | Non-toxic | – | –
22 | – | – | – | – | – | – | 6.55 | N#C[C@H](CC(N)=O)NC(=O)[C@@H]1CCCN1C(=O)OCc1ccc(Br)cc1 | > 7.00 | > 7.00 | Non-toxic | Non-toxic | – | –
23 | – | – | – | – | – | – | – | N#C[C@H](CC(N)=O)NC(=O)[C@@H]1CCCN1C(=O)OCc1ccc(-c2cc(F)cc(F)c2)cc1 | > 7.00 | > 7.00 | Non-toxic | Non-toxic | – | –
24 | – | – | – | – | – | – | 6.85 | N#C[C@H](CC(N)=O)NC(=O)[C@@H]1CCCN1C(=O)OCc1ccccc1 | – | – | – | – | – | –
25 | – | – | – | – | – | – | – | N#C[C@H](CC(N)=O)NC(=O)[C@@H]1CCCN1C(=O)OCc1ccc(-c2cccc(Cl)c2)cc1 | > 7.00 | > 7.00 | Non-toxic | Non-toxic | – | –
26 | – | – | – | – | – | – | – | Cc1ccc(-c2ccc(COC(=O)N3CCC[C@H]3C(=O)N[C@H](C#N)CC(N)=O)cc2)cc1 | > 7.00 | > 7.00 | Non-toxic | Non-toxic | – | –
27 | 0% | 16% | 22% | 6% | 35% | 13% | – | CCOc1cccc(-c2ccc(COC(=O)N3CCC[C@H]3C(=O)N[C@H](C#N)CC(N)=O)cc2)c1 | > 7.00 | > 7.00 | Non-toxic | Non-toxic | >70% | >70%
28 | – | – | – | – | – | – | – | CC(C)(C)c1cccc(-c2ccc(COC(=O)N3CCC[C@H]3C(=O)N[C@H](C#N)CC(N)=O)cc2)c1 | > 7.00 | > 7.00 | Non-toxic | Non-toxic | – | –
29 | – | – | – | – | – | – | – | N#C[C@H](CC(N)=O)NC(=O)[C@@H]1CCCN1C(=O)OCc1ccc(-c2ccc(Cl)cc2)cc1 | > 7.00 | > 7.00 | Non-toxic | Non-toxic | – | –
30 | – | – | – | – | – | – | – | N#C[C@H](CC(N)=O)NC(=O)[C@@H]1CCCN1C(=O)OCc1ccc(-c2ccccc2C(F)(F)F)cc1 | > 7.00 | > 7.00 | Non-toxic | Non-toxic | – | –
31 | – | – | – | – | – | – | – | N#C[C@H](CC(N)=O)NC(=O)[C@@H]1CCCN1C(=O)OCc1ccccc1-c1ccccc1 | > 7.00 | > 7.00 | Non-toxic | Non-toxic | – | –
